One test addresses T1, aldosterone synthase (Homo sapiens, UniProt P19099).
T1 construct: host or cells: NCI-H295R
T1 sequence (P19099 25-503): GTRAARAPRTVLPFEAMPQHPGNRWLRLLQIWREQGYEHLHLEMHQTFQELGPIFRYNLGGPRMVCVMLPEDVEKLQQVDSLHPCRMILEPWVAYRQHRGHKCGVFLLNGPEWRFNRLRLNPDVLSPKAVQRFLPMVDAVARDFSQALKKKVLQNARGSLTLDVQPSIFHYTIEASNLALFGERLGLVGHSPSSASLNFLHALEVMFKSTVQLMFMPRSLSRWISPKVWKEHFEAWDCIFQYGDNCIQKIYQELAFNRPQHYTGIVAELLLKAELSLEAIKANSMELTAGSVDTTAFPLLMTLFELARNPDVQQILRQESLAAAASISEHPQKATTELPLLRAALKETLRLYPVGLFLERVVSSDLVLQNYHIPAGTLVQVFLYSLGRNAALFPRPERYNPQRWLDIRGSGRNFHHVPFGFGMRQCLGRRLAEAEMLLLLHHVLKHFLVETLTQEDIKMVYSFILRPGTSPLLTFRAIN
Nature of the test: Aldosterone cell secretion in NCI-H295R cells (aldosterone synthase inhibition, SPA). The test is classed as cell-based. To be noted: human adrenocortical carcinoma NCI-H295R cells, 1 μM Ang II, 24 hr. The text has this:
In particular, the aldosterone synthase inhibitory activities in vitro can be determined by the following assay.
Human adrenocortical carcinoma NCI-H295R cell line was obtained from American Type Culture Collection (Manassas, Va.). Insulin/transferrin/selenium (ITS)-A supplement (100×). DMEM/F-12, antibiotic/antimycotic (100×), and fetal bovine serum (FBS) were purchased from Invitrogen (Carlsbad, Calif.). Anti-mouse PVT scintillation proximity assay (SPA) beads and NBS 96-well plates were obtained from GE Health Sciences (Piscataway, N.J.) and Corning (Acton, Mass.), respectively. Solid black 96-well flat bottom plates were purchased from Costar (Corning, N.Y.). Aldosterone and angiotensin (Ang II) were purchased from Sigma (St. Louis, Mo.). D-[1,2,6,7-^3H(N)]aldosterone was acquired from PerkinElmer (Boston, Mass.). Nu-serum was a product of BD Biosciences (Franklin Lakes, N.J.). The NADPH regenerating system, dibenzylfluorescein (DBF), and human aromatase Supersomes® were obtained from Gentest (Woburn, Mass.).
For in vitro measurement of aldosterone activity, human adrenocortical carcinoma NCI-H295R cells are seeded in NBS 96-well plates at a density of 25,000 cells/well in 100 μl of a growth medium containing DMEM/F12 supplemented with 10% FCS, 2.5% Nu-serum, 1 μg ITS/ml, and 1× antibiotic/antimycotic. The medium is changed after culturing for 3 days at 37° C. under an atmosphere of 5% CO2/95% air. On the following day, cells are rinsed with 100 μl of phosphate-buffered saline (PBS) and incubated with 100 μl of treatment medium containing 1 μM Ang II and a compound at different concentrations in quadruplicate wells at 37° C. for 24 hr. At the end of incubation, 50 μl of medium is withdrawn from each well for measurement of aldosterone production by an SPA using mouse anti-aldosterone monoclonal antibodies.
Measurement of aldosterone activity can also be performed using a 96-well plate format. Each test sample is incubated with 0.02 μCi of D-[1,2,6,7-^3H(N)]aldosterone and 0.3 μg of anti-aldosterone antibody in PBS containing 0.1% Triton X-100, 0.1% bovine serum albumin, and 12% glycerol in a total volume of 200 μl at room temperature for 1 hr. Anti-mouse PVT SPA beads (50 μl) are then added to each well and incubated overnight at room temperature prior to counting in a Microbeta plate counter. The amount of aldosterone in each sample is calculated by comparing with a standard curve generated using known quantities of the hormone.
(§1) Inhibition of the release of certain steroids can be used as a measure of the respective enzyme inhibition by the added test compounds. The dose-dependent inhibition of enzymic activity by a compound is calculated by means of an inhibition plot which is characterized by an IC50.
The IC50 values for active test compounds are ascertained by a simple linear regression analysis in order to construct inhibition plots without data weighting. The inhibition plot is calculated by fitting a 4-parameter logistic function to the raw data points using the least squares method. The equation of the 4-parameter logistic function is calculated as follows: Y=(d−a)/((1+(x/c)b))+a, where: a=minimum data level, b=gradient, I […], d=maximum data level, x=inhibitor concentration.
The inhibition activity of aldosterone production can also be expressed in percentage inhibition (% inhibition) at a given concentration (e.g. % inhibition at 1 μM), which is the aldosterone level when the cell is treated with the given concentration of a compound of this invention (e.g. concentration of 1 μM) versus the aldosterone excretion when cell is free of the compound of the invention: % inhibition aldosterone production=[(Y−X)/Y]×100 wherein X is the level of aldosterone when the cell is treated with a compound of Formula I; and Y is the level of aldosterone when the cell is free of compound of Formula I.

The target in another test is T2, CYP11B1 (Homo sapiens, UniProt P15538).
T2 construct: the NCI-H295R cells have Cyp11 B1 (steroid 11 β-hydroxylase); host or cells: NCI-H295R
T2 sequence (P15538 25-503): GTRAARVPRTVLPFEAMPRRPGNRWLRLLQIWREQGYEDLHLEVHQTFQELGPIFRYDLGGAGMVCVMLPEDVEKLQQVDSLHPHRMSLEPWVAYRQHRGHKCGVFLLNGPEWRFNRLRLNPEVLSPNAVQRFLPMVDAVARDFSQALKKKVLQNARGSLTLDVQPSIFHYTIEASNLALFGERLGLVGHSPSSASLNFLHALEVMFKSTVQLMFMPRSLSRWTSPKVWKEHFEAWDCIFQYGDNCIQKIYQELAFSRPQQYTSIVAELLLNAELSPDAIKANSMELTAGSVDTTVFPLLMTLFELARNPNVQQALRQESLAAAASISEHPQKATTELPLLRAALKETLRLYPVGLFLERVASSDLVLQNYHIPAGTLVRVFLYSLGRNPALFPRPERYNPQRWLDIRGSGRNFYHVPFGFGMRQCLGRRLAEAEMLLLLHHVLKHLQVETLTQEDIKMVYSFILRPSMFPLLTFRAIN
Nature of the test: Cortisol cell secretion in NCI-H295R cells (CYP11B1 activity). The conditions noted are these: compound at 1 μM; for inhibition at 1 µM: NCI-H295R, read-out: Cortisol cell secretion (% Inhib. @ 1 μM). The test is classed as cell-based.
From the text: The in vitro inhibitory activities for CYP1B1 can be determined by the following assay.
The cell line NCI-H295R was originally isolated from an adrenocortical carcinoma and has been characterized in the literature through the stimulable secretion of steroid hormones and the presence of the enzymes essential for steroidogenesis. Thus, the NCI-H295R cells have Cyp11 B1 (steroid 11 β-hydroxylase). The cells show the physiological property of zonally undifferentiated human foetal adrenocortical cells which, however, have the capacity to produce the steroid hormones which are formed in the three, phenotypically distinguishable zones in the adult adrenal cortex.
The NCI-H295R cells (American Type Culture Collection, ATCC, Rockville, Md., USA) are grown in Dulbeoco's Modified Eagle'Ham F-12 Medium (DME/F12), which has been supplemented with Ulroser SF Serum (Soprachem, Geigy-Saint-Christophe, France), insulin, transferrin, selenite (I-T-S, Becton Dickinson Biosiences, Franklin lakes. NJ, USA) and antibiotics in 75 cm^2 cell culture vessels at 37° C. and in a 95% air-5% carbon dioxide atmosphere. The cells are subsequently transferred for colony formation into a 24-well incubation vessel. They are cultivated there in DME/F12 medium, which is now supplemented with 0.1% bovine serum instead of Ultroser SF for 24 hours. The experiment is initiated by cultivating the cells in DME/F12 medium which is supplemented with 0.1% bovine serum albumin and test compound, in the presence or absence of cell stimulants, for 72 hours. The test substance is added in a concentration range from 0.2 nanomolar to […]. Cell stimulants which can be used are angiotensin II (1 D or 100 nanomolar), potassium ions (16 millimolar), forskolin (10 micromolar) or a combination of two stimulants.
The excretion of aldosterone, cortisol, corticosterone and estradiol/estrone into the culture medium can be detected and quantified by commercially available, specific monoclonal antibodies in radioimmunoassays in accordance with the manufacturer's instructions.
as §1
The inhibition activity of cortisol production (CYP11B1 activity) can also be expressed in percentage inhibition (% inhibition) at a given concentration (e.g. % inhibition at 1 μM), which is the cortisol level when cell is treated with the given concentration of a compound of the invention (e.g. concentration of 1 μM) versus the cortisol excretion when cell is free of the compound of the invention. % inhibition cortisol production=[(Y′−X′)/Y′]×100 wherein X′ is the level of cortisol when the cell is treated with a compound of Formula I; and Y′ is the level of cortisol when the cell is free of compound of Formula I.

One may read the IC50 as the concentration that inhibits the measured activity by half. Lower therefore signals higher potency.

On to `Cn1c(=O)oc2ccc(-c3cncc(CCO)c3)cc21` [Example 18, 5-(5-(2-hydroxyethyl)pyridin-3-yl)-3-methylbenzo[d]oxazol-2(3H)-one], for which, on aldosterone synthase, inhibition was half-maximal at 34 nM (IC50). In addition, the inhibition at 1 µM at CYP11B1 worked out at 57%.

Turning to `Cn1c(=O)oc2ccc(-c3cncc(C(N)C(F)(F)F)c3)cc21` (single isomer, unassigned) [Example 29 Enantiomer 1, 5-(5-(1-amino-2,2,2-trifluoroethyl)pyridin-3-yl)-3-methylbenzo[d]oxazol-2(3H)-one], at aldosterone synthase, the IC50 stood at 47 nM. Further, the inhibition at 1 µM on CYP11B1 amounted to 57%.

With `Cn1c(=O)oc2ccc(-c3cncc(C(O)C4CC4)c3)cc21` (single isomer, unassigned) [Example 13 Enantiomer 2, 5-(5-(cyclopropyl(hydroxy)methyl)pyridin-3-yl)-3-methylbenzo[d]oxazol-2(3H)-one], the IC50 at aldosterone synthase was 30 nM. Further, the “Cortisol cell secretion (% Inhib. @ 1 μM)” value at CYP11B1 was found to be 64%.

`Cn1c(=O)oc2ccc(-c3cncc(CO)c3)cc21` [Example 15, 5-(5-(hydroxymethyl)pyridin-3-yl)-3-methylbenzo[d]oxazol-2(3H)-one] had an IC50 against aldosterone synthase of 21 nM. Further, on CYP11B1, the inhibition at 1 µM stood at 83%.

In the case of `Cc1ccncc1-c1ccc2oc(=O)n(C)c2c1` [Example 2, 3-Methyl-5-(4-methyl-pyridin-3-yl)-3H-benzooxazol-2-one], at aldosterone synthase, 4 nM corresponded to half-maximal inhibition (IC50). On CYP11B1, the inhibition at 1 µM worked out at 82%.
